Test results: patent US20240391940A1, “FUSED RING-CONTAINING COMPOUND, APPLICATION THEREOF, AND COMPOSITION CONTAINING SAME” (GenEros Biopharma Ltd., priority 2020, published 2024)

Tests used:
[1] = tested on: collagen-induced arthritis (CIA) mouse model; assay: Mouse CIA model, repeated for dose exploration (10, 30, 50 mg/kg)
Text: Testing was repeated for dose exploration
The above method was used.

female BALB/c mice = assay: Toxicity, multiple administrations for 14 days in mice; assay type: in vivo; settings: female BALB/c mice
Protocol: • Part I: Single administration. A total of 6 mice were used. They were randomly divided into 2 groups: the vehicle control and GEN1-284s (1000 mg/kg), dosed once by oral gavage and observed for 6 days, and changes in body weight and activities were recorded. • Part II: Multiple administrations. This experiment used a total of 6 mice. They were divided into two groups of 3: a GEN1-284s-1000 mg/kg group and a GEN1-284s-300 mg/kg group, and were intragastrically given GEN1-284s for 14 consecutive days at 200 μL each. The state and survival of the mice were observed every day, and their body weights were recorded. Two mice died 2 h after GEN1-284s-1000 mg/kg administration. The dose was changed to 600 mg/kg, and the experiment was continued.
This experiment used a total of 6 mice. They were divided into two groups of 3: a GEN1-284s-1000 mg/kg group and a GEN1-284s-300 mg/kg group, and were intragastrically given GEN1-284s for 14 consecutive days at 200 μL each. The state and survival of the mice were observed every day, and their body weights were recorded. Two mice died 2 h after GEN1-284s-1000 mg/kg administration. The dose was changed to 600 mg/kg, and the experiment was continued.
Each mouse was intragastrically administered GEN1-284s for 14 consecutive days in a volume of 200 μL/20 g. The state and survival of the mice were observed every day, and their body weights were recorded. Two mice died 2 h after GEN1-284s-1000 mg/kg administration. The dose was changed to 600 mg/kg, and the experiment was continued.
Changes in body weight and survival of the mice were observed during 6 days after the single administration, and changes in body weight and the survival of the mice were observed during 14 consecutive days of high-dose GEN1-284s administration.

[2] = CIA mice, GEN1-284s 10, 30 and 50 mg/kg qd po
[3] = 300 mg/kg intragastric for 14 consecutive days

O=C(Cc1ccc2ncccc2c1)N1CCC(n2c(=O)n(COP(=O)([O-])[O-])c3cccc(C(F)(F)F)c32)CC1.[Na+].[Na+] [GEN1-284 salt, (2-Oxo-3-(1-(2-(quinolin-6-yl)acetyl)piperidin-4-yl)-4-(trifluoromethyl)-2,3-dihydro-1H-benzo[d]imidazol-1-yl)methyl disodium phosphate]
Effect on the score of arthritis [1, 2]: consistently and significantly inhibit the score of arthritis
Score of arthritis compared with the tofacitinib positive group [1, 2]: no significant difference from the tofacitinib positive group
Tolerance [1, 2]: good tolerance
Significance of clinical score vs. Vehicle group (Two-way ANOVA) ([1]; CIA mice, GEN1-284s 10 mpk, Day 35): ns
Significance of clinical score vs. Vehicle group (Two-way ANOVA) ([1]; CIA mice, GEN1-284s 10 mpk, Day 38): ns
Significance of clinical score vs. Vehicle group (Two-way ANOVA) ([1]; CIA mice, GEN1-284s 10 mpk, Day 40): ns
Significance of clinical score vs. Vehicle group (Two-way ANOVA) ([1]; CIA mice, GEN1-284s 10 mpk, Day 42): * (*P < 0.05)
Significance of clinical score vs. Vehicle group (Two-way ANOVA) ([1]; CIA mice, GEN1-284s 30 mpk, Day 35): ns
Significance of clinical score vs. Vehicle group (Two-way ANOVA) ([1]; CIA mice, GEN1-284s 30 mpk, Day 38): ** (**P < 0.01)
Significance of clinical score vs. Vehicle group (Two-way ANOVA) ([1]; CIA mice, GEN1-284s 30 mpk, Day 40): * (*P < 0.05)
Significance of clinical score vs. Vehicle group (Two-way ANOVA) ([1]; CIA mice, GEN1-284s 30 mpk, Day 42): * (*P < 0.05)
Significance of clinical score vs. Vehicle group (Two-way ANOVA) ([1]; CIA mice, GEN1-284s 50 mpk, Day 35): * (*P < 0.05)
Significance of clinical score vs. Vehicle group (Two-way ANOVA) ([1]; CIA mice, GEN1-284s 50 mpk, Day 38): ** (**P < 0.01)
Significance of clinical score vs. Vehicle group (Two-way ANOVA) ([1]; CIA mice, GEN1-284s 50 mpk, Day 40): ** (**P < 0.01)
Significance of clinical score vs. Vehicle group (Two-way ANOVA) ([1]; CIA mice, GEN1-284s 50 mpk, Day 42): ** (**P < 0.01)
Changes in body weight, Mean ± SEM ([1]; G3 GEN1-284s 10 mg/kg, Day 21): 20.64 ± 0.17
Clinical scores, Mean ± SEM ([1]; G3 GEN1-284s 10 mg/kg, Day 21): 0.0 ± 0.00
Changes in body weight, Mean ± SEM ([1]; G3 GEN1-284s 10 mg/kg, Day 24): 20.40 ± 0.28
Clinical scores, Mean ± SEM ([1]; G3 GEN1-284s 10 mg/kg, Day 24): 0.0 ± 0.00
Changes in body weight, Mean ± SEM ([1]; G3 GEN1-284s 10 mg/kg, Day 26): 20.19 ± 0.41
Clinical scores, Mean ± SEM ([1]; G3 GEN1-284s 10 mg/kg, Day 26): 0.3 ± 0.16
Changes in body weight, Mean ± SEM ([1]; G3 GEN1-284s 10 mg/kg, Day 28): 19.34 ± 0.52
Clinical scores, Mean ± SEM ([1]; G3 GEN1-284s 10 mg/kg, Day 28): 0.6 ± 0.18
Changes in body weight, Mean ± SEM ([1]; G3 GEN1-284s 10 mg/kg, Day 31): 18.89 ± 0.44
Clinical scores, Mean ± SEM ([1]; G3 GEN1-284s 10 mg/kg, Day 31): 2.5 ± 0.57
Changes in body weight, Mean ± SEM ([1]; G3 GEN1-284s 10 mg/kg, Day 33): 18.65 ± 0.48
Clinical scores, Mean ± SEM ([1]; G3 GEN1-284s 10 mg/kg, Day 33): 4.1 ± 0.99
Changes in body weight, Mean ± SEM ([1]; G3 GEN1-284s 10 mg/kg, Day 35): 19.04 ± 0.47
Clinical scores, Mean ± SEM ([1]; G3 GEN1-284s 10 mg/kg, Day 35): 5.6 ± 1.29
Changes in body weight, Mean ± SEM ([1]; G3 GEN1-284s 10 mg/kg, Day 38): 19.54 ± 0.38
Clinical scores, Mean ± SEM ([1]; G3 GEN1-284s 10 mg/kg, Day 38): 6.9 ± 1.55
Changes in body weight, Mean ± SEM ([1]; G3 GEN1-284s 10 mg/kg, Day 40): 19.85 ± 0.28
Clinical scores, Mean ± SEM ([1]; G3 GEN1-284s 10 mg/kg, Day 40): 7.5 ± 1.69
Changes in body weight, Mean ± SEM ([1]; G3 GEN1-284s 10 mg/kg, Day 42): 19.90 ± 0.31
Clinical scores, Mean ± SEM ([1]; G3 GEN1-284s 10 mg/kg, Day 42): 7.9 ± 1.79
Clinical scores: significance vs. solvent control group, two-way ANOVA ([1]; G3 GEN1-284s 10 mg/kg, Day 42): * (* p <0.05)
Changes in body weight, Mean ± SEM ([1]; G4 GEN1-284s 30 mg/kg, Day 21): 20.25 ± 0.34
Clinical scores, Mean ± SEM ([1]; G4 GEN1-284s 30 mg/kg, Day 21): 0.0 ± 0.00
Changes in body weight, Mean ± SEM ([1]; G4 GEN1-284s 30 mg/kg, Day 24): 19.74 ± 0.33
Clinical scores, Mean ± SEM ([1]; G4 GEN1-284s 30 mg/kg, Day 24): 0.0 ± 0.00
Changes in body weight, Mean ± SEM ([1]; G4 GEN1-284s 30 mg/kg, Day 26): 19.79 ± 0.34
Clinical scores, Mean ± SEM ([1]; G4 GEN1-284s 30 mg/kg, Day 26): 0.3 ± 0.16
Changes in body weight, Mean ± SEM ([1]; G4 GEN1-284s 30 mg/kg, Day 28): 19.48 ± 0.54
Clinical scores, Mean ± SEM ([1]; G4 GEN1-284s 30 mg/kg, Day 28): 0.6 ± 0.18
Changes in body weight, Mean ± SEM ([1]; G4 GEN1-284s 30 mg/kg, Day 31): 19.20 ± 0.56
Clinical scores, Mean ± SEM ([1]; G4 GEN1-284s 30 mg/kg, Day 31): 2.1 ± 0.69
Changes in body weight, Mean ± SEM ([1]; G4 GEN1-284s 30 mg/kg, Day 33): 19.50 ± 0.61
Clinical scores, Mean ± SEM ([1]; G4 GEN1-284s 30 mg/kg, Day 33): 3.6 ± 1.13
Changes in body weight, Mean ± SEM ([1]; G4 GEN1-284s 30 mg/kg, Day 35): 19.68 ± 0.61
Clinical scores, Mean ± SEM ([1]; G4 GEN1-284s 30 mg/kg, Day 35): 5.1 ± 1.25
Changes in body weight, Mean ± SEM ([1]; G4 GEN1-284s 30 mg/kg, Day 38): 19.46 ± 0.56
Clinical scores, Mean ± SEM ([1]; G4 GEN1-284s 30 mg/kg, Day 38): 6.0 ± 1.40
Clinical scores: significance vs. solvent control group, two-way ANOVA ([1]; G4 GEN1-284s 30 mg/kg, Day 38): ** (** p < 0.01)
Changes in body weight, Mean ± SEM ([1]; G4 GEN1-284s 30 mg/kg, Day 40): 20.06 ± 0.53
Clinical scores, Mean ± SEM ([1]; G4 GEN1-284s 30 mg/kg, Day 40): 6.9 ± 1.53
Clinical scores: significance vs. solvent control group, two-way ANOVA ([1]; G4 GEN1-284s 30 mg/kg, Day 40): * (* p <0.05)
Changes in body weight, Mean ± SEM ([1]; G4 GEN1-284s 30 mg/kg, Day 42): 19.78 ± 0.44
Clinical scores, Mean ± SEM ([1]; G4 GEN1-284s 30 mg/kg, Day 42): 8.1 ± 1.26
Clinical scores: significance vs. solvent control group, two-way ANOVA ([1]; G4 GEN1-284s 30 mg/kg, Day 42): * (* p <0.05)
Changes in body weight, Mean ± SEM ([1]; G5 GEN1-284s 50 mg/kg, Day 21): 20.44 ± 0.30
Clinical scores, Mean ± SEM ([1]; G5 GEN1-284s 50 mg/kg, Day 21): 0.0 ± 0.00
Changes in body weight, Mean ± SEM ([1]; G5 GEN1-284s 50 mg/kg, Day 24): 19.66 ± 0.23
Clinical scores, Mean ± SEM ([1]; G5 GEN1-284s 50 mg/kg, Day 24): 0.0 ± 0.00
Changes in body weight, Mean ± SEM ([1]; G5 GEN1-284s 50 mg/kg, Day 26): 19.70 ± 0.26
Clinical scores, Mean ± SEM ([1]; G5 GEN1-284s 50 mg/kg, Day 26): 0.4 ± 0.18
Changes in body weight, Mean ± SEM ([1]; G5 GEN1-284s 50 mg/kg, Day 28): 19.60 ± 0.43
Clinical scores, Mean ± SEM ([1]; G5 GEN1-284s 50 mg/kg, Day 28): 0.6 ± 0.18
Changes in body weight, Mean ± SEM ([1]; G5 GEN1-284s 50 mg/kg, Day 31): 18.88 ± 0.52
Clinical scores, Mean ± SEM ([1]; G5 GEN1-284s 50 mg/kg, Day 31): 1.9 ± 0.67
Changes in body weight, Mean ± SEM ([1]; G5 GEN1-284s 50 mg/kg, Day 33): 18.91 ± 0.59
Clinical scores, Mean ± SEM ([1]; G5 GEN1-284s 50 mg/kg, Day 33): 3.4 ± 1.15
Changes in body weight, Mean ± SEM ([1]; G5 GEN1-284s 50 mg/kg, Day 35): 19.09 ± 0.53
Clinical scores, Mean ± SEM ([1]; G5 GEN1-284s 50 mg/kg, Day 35): 4.8 ± 1.36
Clinical scores: significance vs. solvent control group, two-way ANOVA ([1]; G5 GEN1-284s 50 mg/kg, Day 35): * (* p <0.05)
Changes in body weight, Mean ± SEM ([1]; G5 GEN1-284s 50 mg/kg, Day 38): 19.10 ± 0.52
Clinical scores, Mean ± SEM ([1]; G5 GEN1-284s 50 mg/kg, Day 38): 5.9 ± 1.54
Clinical scores: significance vs. solvent control group, two-way ANOVA ([1]; G5 GEN1-284s 50 mg/kg, Day 38): ** (** p < 0.01)
Changes in body weight, Mean ± SEM ([1]; G5 GEN1-284s 50 mg/kg, Day 40): 19.31 ± 0.43
Clinical scores, Mean ± SEM ([1]; G5 GEN1-284s 50 mg/kg, Day 40): 6.6 ± 1.60
Clinical scores: significance vs. solvent control group, two-way ANOVA ([1]; G5 GEN1-284s 50 mg/kg, Day 40): ** (** p < 0.01)
Changes in body weight, Mean ± SEM ([1]; G5 GEN1-284s 50 mg/kg, Day 42): 19.39 ± 0.39
Clinical scores, Mean ± SEM ([1]; G5 GEN1-284s 50 mg/kg, Day 42): 6.9 ± 1.55
Clinical scores: significance vs. solvent control group, two-way ANOVA ([1]; G5 GEN1-284s 50 mg/kg, Day 42): ** (** p < 0.01)
Change in body weight (female BALB/c mice; [3]): no significant change in body weight
Survival (female BALB/c mice; [3]): did not affect the survival of the mice
Number of mice that died (female BALB/c mice; 600 mg/kg group, Day 4): 1 mouse
Number of mice that died 2 h after administration (female BALB/c mice; 1000 mg/kg intragastric, day 1, group of 3): 2 mice
Time within which all mice died (female BALB/c mice; continuous administration of 600 mg/kg): ≤ 5 days
